Laboratory results as given in ChEMBL document CHEMBL4665715, “Thienochromene derivatives inhibit pSTAT1 and pSTAT5 signaling induced by cytokines” (Bioorg Med Chem Lett, 2020).
Calls of active or inactive are those of the source. The rule behind the calls is not given here.

Assays:
Format in all cases: tissue-based
Janus Kinase (JAK) [1] = biological target: T1, Janus Kinase (JAK) (Homo sapiens, UniProt P52333+P23458+O60674+P29597); assay: Inhibition of JAK in human PBMC assessed as inhibition of IL2-induced STAT5 phosphorylation at 150 uM preincubated for 30 mins followed by addition IL2 stimulation and measured after 30 mins by ELISA
Janus Kinase (JAK) [2] = biological target: T1, Janus Kinase (JAK); assay: Inhibition of JAK in human PBMC assessed as inhibition of GM-CSF-induced STAT5 phosphorylation preincubated for 30 mins followed by addition […] stimulation and measured after 30 mins by ELISA
Janus Kinase (JAK) [3] = biological target: T1, Janus Kinase (JAK); assay: Inhibition of JAK in human PBMC assessed as inhibition of IFNalpha-induced STAT1 phosphorylation preincubated for 30 mins followed by addition […] stimulation and measured after 30 mins by ELISA
Janus Kinase (JAK) [4] = biological target: T1, Janus Kinase (JAK); assay: Inhibition of JAK in human PBMC assessed as inhibition of GM-CSF-induced STAT5 phosphorylation at 150 uM preincubated for 30 mins followed by addition […] stimulation and measured after 30 mins by ELISA
Janus Kinase (JAK) [5] = biological target: T1, Janus Kinase (JAK); assay: Inhibition of JAK in human PBMC assessed as inhibition of IL2-induced STAT5 phosphorylation preincubated for 30 mins followed by addition IL2 stimulation and measured after 30 mins by ELISA
Janus Kinase (JAK) [6] = biological target: T1, Janus Kinase (JAK); assay: Inhibition of JAK in human PBMC assessed as inhibition of IFNalpha-induced STAT1 phosphorylation at 150 uM preincubated for 30 mins followed by addition […] stimulation and measured after 30 mins by ELISA

CCOC(=O)c1cc2c(=O)oc3cc(O)ccc3c2s1
inhibition (Janus Kinase (JAK) [1]): Active | IC50 (Janus Kinase (JAK) [2]): 5 µM | IC50 (Janus Kinase (JAK) [3]): 11.9 µM | inhibition (Janus Kinase (JAK) [4]): Active | IC50 (Janus Kinase (JAK) [5]): 12.1 µM | inhibition (Janus Kinase (JAK) [6]): Active
